Data from patent US20250051367A1, “HETEROCYCLE-CONTAINING LONP1 INHIBITOR COMPOUNDS, USES AND METHODS” (Pretzel Therapeutics, Inc., priority 2021, published 2025).
pIC50: −log10 of the molar value.

Molecular target: LONP1 (NM_004793.4) (Homo sapiens (Human), UniProt P36776)
Assay: LONP1 FRET-based protease activity assay (fluorogenic peptide substrate)
Assay type: biochemical
Conditions: substrate 3 μM, LONP1 15 nM, 1 hour at 37° C.; average of a minimum of two repeats
Experimental: The inhibitory activity of the compounds of the present invention against LONP1, 20S proteasome and other proteases are determined by assays known to persons of ordinary skill in the art (see, e.g., Fishovitz, J. et al. “Active-Site-Directed Chemical Tools for Profiling Mitochondrial Lon Protease” ACS Chem. Biol. 6, 781-788 (2011)).
In this Example, LONP1 (NM_004793.4) activity was measured by a FRET-based assay for protease activity using a fluorogenic peptide DabcylYRGIT(2Abu)SGRQK(5-FAM) (Cambridge Research Biochemicals) as substrate. LONP1 activity is followed by an increase in fluorescence signal due to the degradation of the peptide. Inhibition of LONP1 protease activity by an inhibitor compound of the disclosure elicits a decrease in the fluorescent signal.
The assay is performed in a 384-well plate (Greiner, cat. #781076) using the following reagents and conditions: substrate (3 μM) was incubated for 1 hour at 37° C. in the presence of LONP1 (15 nM as monomer), 25 mM Tris pH 8.0, 10 mM MgCl2, 0.03 mg/mL BSA, 0.5 mM DTT, 0.0003% Tween-20, 10 mM NaCl, 0.06 mM ATP and 0.5 mM EGTA in a 15 μL final volume. The LONP1-containing mix (10 μL) was incubated with the test compound for 15 min at 37° C. before adding the peptide-containing mix (5 μL). Solutions were dispensed using a small cassette-Multidrop Combi (Thermo Scientific). Fluorescence was measured using a PheraStar plate reader (BMG Labtech) FI-FRET EX 485 nm Em 520 nm.
Each value is based on an average of a minimum of two repeats.

Sequence of LONP1 (NM_004793.4) (P36776 68-959): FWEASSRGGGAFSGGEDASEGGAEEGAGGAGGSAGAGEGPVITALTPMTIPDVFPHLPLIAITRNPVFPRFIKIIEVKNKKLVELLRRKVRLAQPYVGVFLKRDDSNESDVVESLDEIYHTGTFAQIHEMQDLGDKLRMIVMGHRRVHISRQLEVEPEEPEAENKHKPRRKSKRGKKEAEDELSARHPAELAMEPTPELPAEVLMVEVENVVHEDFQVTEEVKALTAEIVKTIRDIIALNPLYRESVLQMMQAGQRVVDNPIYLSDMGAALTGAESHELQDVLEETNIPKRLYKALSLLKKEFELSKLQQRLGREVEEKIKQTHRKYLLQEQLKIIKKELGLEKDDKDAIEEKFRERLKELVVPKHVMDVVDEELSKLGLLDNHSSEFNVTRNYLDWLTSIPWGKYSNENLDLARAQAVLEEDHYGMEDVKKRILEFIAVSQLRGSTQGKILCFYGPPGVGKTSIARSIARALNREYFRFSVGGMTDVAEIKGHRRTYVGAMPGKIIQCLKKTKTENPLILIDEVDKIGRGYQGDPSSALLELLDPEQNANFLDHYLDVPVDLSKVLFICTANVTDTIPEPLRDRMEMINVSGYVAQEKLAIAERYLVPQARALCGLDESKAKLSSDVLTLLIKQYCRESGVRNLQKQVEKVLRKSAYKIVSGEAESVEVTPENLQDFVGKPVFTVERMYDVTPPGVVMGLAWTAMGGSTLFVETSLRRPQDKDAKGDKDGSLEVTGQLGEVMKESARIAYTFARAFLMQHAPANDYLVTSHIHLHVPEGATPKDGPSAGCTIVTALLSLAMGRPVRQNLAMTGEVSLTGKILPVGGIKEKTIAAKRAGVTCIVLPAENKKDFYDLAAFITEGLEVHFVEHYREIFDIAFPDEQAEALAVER

| Compound | pIC50 |
| --- | --- |
| O=C(N[C@H](Cc1ncco1)C(=O)N[C@@H](CCCc1ccccc1)B(O)O)c1cnccn1 [Compound 10, ((R)-1-((R)-3-(oxazol-2-yl)-2-(pyrazine-2-carboxamido)propanamido)-4-phenylbutyl)boronic acid] | > 7.30 |
| CC(C)C[C@H](NC(=O)[C@H](Cc1nccn1C)NC(=O)c1cnccn1)B(O)O [Compound 9, ((R)-3-methyl-1-((S)-3-(1-methyl-1H-imidazol-2-yl)-2-(pyrazine-2-carboxamido)propanamido)butyl)boronic acid] | 6.30 to 7.30 |
| O=C(N[C@H](Cc1c[nH]c2ccccc12)C(=O)N[C@@H](CCCc1ccccc1)B(O)O)c1cnccn1 [Compound 7, ((R)-1-((R)-3-(1H-indol-3-yl)-2-(pyrazine-2-carboxamido)propanamido)-4-phenylbutyl)boronic acid] | 6.30 to 7.30 |
| Cn1ccc(C[C@@H](NC(=O)c2cnccn2)C(=O)N[C@H](CCCc2ccccc2)B(O)O)n1 (stereo in doubt) [Compound 4, ((S)-1-((R)-3-(1-methyl-1H-pyrazol-3-yl)-2-(pyrazine-2-carboxamido)propanamido)-4-phenylbutyl)boronic acid] | > 7.30 |
| CC(C)C[C@H](NC(=O)[C@@H](Cc1nccn1C)NC(=O)c1cnccn1)B(O)O [Compound 8, ((R)-3-methyl-1-((R)-3-(1-methyl-1H-imidazol-2-yl)-2-(pyrazine-2-carboxamido)propanamido)butyl)boronic acid] | 6.30 to 7.30 |
| Cn1ccnc1C[C@@H](NC(=O)c1cnccn1)C(=O)N[C@@H](CCCc1ccccc1)B(O)O [Compound 12, ((R)-1-((R)-3-(1-methyl-1H-Imidazol-2-yl)-2-(pyrazine-2-carboxamido)propanamido)-4-phenylbutyl)boronic acid] | > 7.30 |
| Cn1ccnc1C[C@H](NC(=O)c1cnccn1)C(=O)N[C@@H](CCCc1ccccc1)B(O)O [Compound 13, ((R)-1-((S)-3-(1-methyl-1H-imidazol-2-yl)-2-(pyrazine-2-carboxamido)propanamido)-4-phenylbutyl)boronic acid] | 6.30 to 7.30 |

More lines, now with the values ahead:

| pIC50 | Compound |
| --- | --- |
| > 7.30 | O=C(N[C@H](Cc1nccs1)C(=O)N[C@@H](CCCc1ccccc1)B(O)O)c1cnccn1 [Compound 1, ((R)-4-phenyl-1-((R)-2-(pyrazine-2-carboxamido)-3-(thiazol-2-yl)propanamido)butyl)boronic acid] |
| > 7.30 | O=C(N[C@@H](Cc1cnco1)C(=O)N[C@@H](CCCc1ccccc1)B(O)O)c1cnccn1 [Compound 6] |
| > 7.30 | Cn1ccc(C[C@@H](NC(=O)c2cnccn2)C(=O)N[C@@H](CCCc2ccccc2)B(O)O)n1 [Compound 3, ((R)-1-((R)-3-(1-methyl-1H-pyrazol-3-yl)-2-(pyrazine-2-carboxamido)propanamido)-4-phenylbutyl)boronic acid] |
| > 7.30 | O=C(N[C@@H](Cc1nccs1)C(=O)N[C@@H](CCCc1ccccc1)B(O)O)c1cnccn1 [Compound 2, ((R)-4-phenyl-1-((S)-2-(pyrazine-2-carboxamido)-3-(thiazol-2-yl)propanamido)butyl)boronic acid] |
| > 7.30 | O=C(N[C@H](Cc1cnco1)C(=O)N[C@@H](CCCc1ccccc1)B(O)O)c1cnccn1 [Compound 5, ((R)-1-((R)-3-(oxazol-5-yl)-2-(pyrazine-2-carboxamido)propanamido)-4-phenylbutyl)boronic acid] |
| > 7.30 | O=C(N[C@@H](Cc1ncco1)C(=O)N[C@@H](CCCc1ccccc1)B(O)O)c1cnccn1 [Compound 11, ((R)-1-((S)-3-(oxazol-2-yl)-2-(pyrazine-2-carboxamido)propanamido)-4-phenylbutyl)boronic acid] |
